Experimental data from US10087234B2, “Mimetic peptides” (LES HOPITAUX UNIVERSITAIRES DE GENEVE, priority 2012, dated 2018).
Bridges are numbered along the chain shown (N, C = ends). Where no end group is shown, it is not given here. [ ]: non-standard residue; d: D form. R8 = C=CCCCCCC[C@@](C)(N)C(=O)O; S5 = C=CCCC[C@](C)(N)C(=O)O

Legend:
anti-ApoA-I antibodies [1] = test: Competition ELISA on plates coated with intact ApoA-I; format: binding, human
Method: Competition ELISA experiments using selected synthetic peptides were also carried out. Synthetic peptides (dissolved in PBS with 2% bovine serum albumin (BSA) at different concentrations were co-incubated with patient sera containing high levels of anti-ApoA-I IgG for 2 h at room temperature, before being added to the wells coated with purified, human-derived delipidated ApoA-I as described above, prior to development of the assay as described above.
In competition ELISA assays, serum from a patient known to be positive for anti-ApoA-I antibodies was preincubated with peptide F3L1 at different concentrations as indicated in FIG. 3 and then added to ELISA plates coated with intact ApoA-I, with the subsequent assay steps carried out according to the standard protocol.

[2] = test system: Human monocyte-derived macrophages (HMDMs); test: Anti-ApoA-I IgG-related pro-inflammatory response (TNF-α production); format: cell-based
Method: Human monocyte-derived macrophages (HMDMs) were obtained by treating human monocytes with interferon (IFN)-γ for 24 hours as previously described (Pagano et al, 2012, J Intern Med). HMDMs were then stimulated in 96-well trays for 24 h with increasing concentrations (5-40 μg/mL) of either polyclonal anti-human ApoA-I (Academy Bio-Medical Company, Houston, Tex., USA) or control antibody (Meridian Life Science, Saco, Me., USA), with IgG from pool+ or pool− (500 μg/mL). In this model, LPS-free anti-ApoA-I IgG has been show to promote the production of TNF-α and IL-6 in a dose dependent manner, with an optimal stimulation at 40 μg/ml (Pagano et al, 2012, J Intern Med).
For competition inhibition experiments, synthetic peptides were co-incubated with 40 μg/ml polyclonal anti-ApoA-I IgG for 2 h at room temperature prior to addition to HMDMs in 96-well plates, and followed by the assessment of IL-6 and TNF-α levels in cell supernatants using Luminex MAP™ Technology. Experiments were performed with blood from three different donors.

[3] = test system: Neonatal rat ventricular cardiomyocytes (NRVC); test: Anti-ApoA-I IgG-related chronotropic response (beating frequency); format: cell-based
Source text: Neonatal rat ventricular cardiomyocytes (NRVC) were isolated from ventricles of 1-2 day-old Wistar rats by digestion with low trypsin-EDTA and type 2 collagenase. Animals were killed by decapitation without any anesthesia, analgesia, or administration of neuromuscular blocking agents, in conformity with the Guide for the Care and Use of Laboratory Animals published by the NIH (publication 85-23) and with the authorization (1012/3134/0-R) of the local county veterinary office. Freshly isolated cells were seeded in plastic flasks to allow selective adhesion of cardiac fibroblasts. Thereafter cardiomyocytes were decanted from the flasks and distributed into laminin-coated 90 mm petri dishes.
After 1-2 days' culture, cells were incubated at time intervals with the appropriate concentration of monoclonal anti-ApoA-I IgG (Abcam, Nottingham, UK) or vehicle in serum-free DMEM. The beating frequency of spontaneously contracting small cell monolayers was determined immediately at the end of the pre-incubation period (t=0) and at different times after the addition of various substances. Frequency determinations were performed by a technician (unaware of the experimental conditions) using a light microscope to count the number of contractions per time unit in three different locations of the dish. The regularity of the cell contractions has been previously assessed by monitoring cytosolic-free calcium fluctuations with fluorescent calcium probes (Maturana et al, 2009, Endocrinology 150:3726-3734). […] Competition inhibition experiments with synthetic peptides were performed using the same experimental conditions. Synthetic peptides were co-incubated with 10 μg/ml monoclonal anti-ApoA-I (Abcam, Nottingham, UK) for 2 h at room temperature, before being added to NRVC in dishes, with beating frequency determined as described above.

[4] = CD spectroscopy to determine helical content; format: physicochemical; settings: troughs at 208 and 222 nm, in comparison to non-stapled control peptide F3
Method: Circular dichroism (CD) spectra from 185 to 240 nm were collected on a Jasco J-815 spectropolarimeter at 20° C. A typical sample was prepared by dissolving lyophilized peptide in 25% trifluoroethanol in water to obtain a concentration of 2 mM, then diluting this solution 20-fold in water and loading in a quartz cuvette (0.2 cm path length). Baseline CD spectra for 1.25% TFE in water was subtracted from the experimental spectra. Data were normalized by calculating the mean residue ellipticity at wavelength 222 nm, (θ)mrw, λ.

anti-ApoA-I antibodies [5] = test: ELISA immunoreactivity of ApoA-I digestion fragments (epitope identification); format: binding, human; settings: sera from 3 patients with high and 3 with low autoantibody titers
Method: To identify specific endogenous epitopes of ApoA-I, the purified ApoA-I was submitted to enzymatic digestion, hydrolyzing the protein specifically at the carboxyl side of lysine or at the carboxylic side of arginine, followed by peptide separation and purification by reversed phase-high performance liquid chromatography and peptide identification by mass spectrometry. The immunoreactivity to the digested protein and each fraction were tested by ELISA using serum samples from 3 patients with high titers and serum samples from 3 patients with low titers of autoantibodies.
For ApoA-I digested at lysine residues, the enzyme Endoproteinase Lys-C(Roche Applied Science) was used (amount of enzyme 1:50 was 1/50 of protein by weight, incubation for 18 h at 37° C., pH 8.5). ApoA-I digestion with Lys-C allowed identification of fractions 70 and 71 (FIG. 8) containing a previously unreported immunoreactive peptide epitope of amino acid sequence corresponding to amino acid residues 141-182 relative to mature amino acid sequence of ApoA-I of SEQ ID NO: 1, comprising the region derived from helix D of SEQ ID NO: 5 with a deletion of the last 2 amino acids of SEQ ID NO: 5. The amino acid sequence of this epitope is SEQ ID NO: 21.
In order to generate peptide fragments cleaved at arginine residues the conventional way would to use the enzyme ArgC. However, ArgC enzyme has a recognized lack of specificity, generating tryptic peptides, which abolished the immunoreactivity. […] This approach allowed identification of fractions 74 and 80 (FIG. 9) containing another immunoreactive peptide epitope of amino acid sequence corresponding to amino acid residues 216-243 relative to mature amino acid sequence of ApoA-I of SEQ ID NO: 1, comprising the region 1 derived from helix F of SEQ ID NO: 8. The amino acid sequence of this epitope is SEQ ID NO: 25.

[6] = serum from 3 anti-ApoA-I positive patients, FIG. 5

| Substance | alpha-helical content [4] | immunoreactivity to anti-ApoA-I antibodies (anti-ApoA-I antibodies [5]) | also measured |
| --- | --- | --- | --- |
| Ac-GLLPVLESFKVSFLSALEXaaYTKXaaLNT-NH2 (Ac-GLLPVLESFKVSFLSALEEYTKKLNT-NH2; lactam 19-23; SMILES CC(=O)NCC(=O)N[C@@H](CC(C)C)C(=O)N[C@@H](CC(C)C)C(=O)N1CCC[C@H]1C(=O)N[C@H](C(=O)N[C@@H](CC(C)C)C(=O)N[C@@H](CCC(=O)O)C(=O)N[C@@H](CO)C(=O)N[C@@H](Cc1ccccc1)C(=O)N[C@@H](CCCCN)C(=O)N[C@H](C(=O)N[C@@H](CO)C(=O)N[C@@H](Cc1ccccc1)C(=O)N[C@@H](CC(C)C)C(=O)N[C@@H](CO)C(=O)N[C@@H](C)C(=O)N[C@@H](CC(C)C)C(=O)N[C@@H](CCC(=O)O)C(=O)N[C@H]1CCC(=O)NCCCC[C@@H](C(=O)N[C@@H](CC(C)C)C(=O)N[C@@H](CC(N)=O)C(=O)N[C@H](C(N)=O)[C@@H](C)O)NC(=O)[C@H](CCCCN)NC(=O)[C@H]([C@@H](C)O)NC(=O)[C@H](Cc2ccc(O)cc2)NC1=O)C(C)C)C(C)C) [F3L1] | increased alpha-helical content |  | inhibition of binding of patient serum IgG to intact ApoA-I (anti-ApoA-I antibodies [1]; [6]): competes effectively; inhibition of binding of patient serum IgG to intact ApoA-I (anti-ApoA-I antibodies [1]; serum from one anti-ApoA-I positive patient, FIG. 4): capable of competitively inhibiting; effect on TNF-α production induced by anti-ApoA-I IgG ([2]; polyclonal anti-ApoA-I IgG 40 μg/ml pre-incubated with peptide 2 h, FIG. 6A): abrogated; effect on TNF-α production induced by pool of IgG from anti-ApoA-I positive patients ([2]; pooled patient IgG pre-incubated with peptide, FIG. 6B): same effect; effect on anti-ApoA-I IgG related chronotropic response ([3]; antibody pre-incubated with peptide 75 μg/ml for 2 h, FIG. 7): fully abrogated; basal frequency contraction rate ([3]; peptide added alone): did not alter; contraction rate in the presence of 10 nM aldosterone ([3]; peptide added alone, 10 nM aldosterone): did not alter |
| Ac-GLLPVLESFKVSFLSXaaLEEYTKXaaLNT-NH2 (Ac-GLLPVLESFKVSFLS[R8]LEEYTK[S5]LNT-NH2; staple 16-23) [F3S2A] | increased alpha-helical content |  |  |
| Ac-KELYLLKFTVESKVGSTELPLNFSLA-NH2 [scrambled F3, reference compound] |  |  | inhibition of binding of patient serum IgG to intact ApoA-I (anti-ApoA-I antibodies [1]; [6]): absence of dose-dependent inhibition |
| Ac-VLESFKVSFLSALEXaaYTKXaaLNT-NH2 (Ac-VLESFKVSFLSALEEYTKKLNT-NH2; lactam 15-19; SMILES CC(=O)N[C@H](C(=O)N[C@@H](CC(C)C)C(=O)N[C@@H](CCC(=O)O)C(=O)N[C@@H](CO)C(=O)N[C@@H](Cc1ccccc1)C(=O)N[C@@H](CCCCN)C(=O)N[C@H](C(=O)N[C@@H](CO)C(=O)N[C@@H](Cc1ccccc1)C(=O)N[C@@H](CC(C)C)C(=O)N[C@@H](CO)C(=O)N[C@@H](C)C(=O)N[C@@H](CC(C)C)C(=O)N[C@@H](CCC(=O)O)C(=O)N[C@H]1CCC(=O)NCCCC[C@@H](C(=O)N[C@@H](CC(C)C)C(=O)N[C@@H](CC(N)=O)C(=O)N[C@H](C(N)=O)[C@@H](C)O)NC(=O)[C@H](CCCCN)NC(=O)[C@H]([C@@H](C)O)NC(=O)[C@H](Cc2ccc(O)cc2)NC1=O)C(C)C)C(C)C) [F4L1] | increased alpha-helical content |  |  |
| Ac-VLESFKVSXaaLSALEEXaaTKKLNT-NH2 (Ac-VLESFKVS[R8]LSALEE[S5]TKKLNT-NH2; staple 9-16) [F4S2B] | increased alpha-helical content |  |  |
| EEMRDRARAHVDALRTHLAPYSDELRQRLAARLEALKEN (Region derived from Helix D of ApoA-I) [SEQ ID NO: 5] |  | more immunoreactive |  |
| GLLPVLESFKVSFLSALEEYTKKLNT (Ac-GLLPVLESFKVSFLSALEEYTKKLNT-NH2) [F3, reference compound] |  |  | inhibition of binding of patient serum IgG to intact ApoA-I (anti-ApoA-I antibodies [1]; [6]): effect observed |
| GLLPVLESFKVSFLSALEEYTKKLNT (not fully specified (bridges)) [SEQ ID NO: 9, Region 2 derived from helix F] |  | more immunoreactive |  |
| LSPLGEEMRDRARAHVDALRTHLAPYSDELRQRLAARLEALK (D2) [SEQ ID NO: 21] |  | immunoreactive |  |
| QGLLPVLESFKVSFLSALEEYTKKLNTQ (F5) [SEQ ID NO: 25] |  | immunoreactive |  |
| VLESFKVSFLSALEEYTKKLNT (not fully specified (bridges)) [SEQ ID NO: 8, Region 1 derived from helix F] |  | more immunoreactive |  |
| amino acid residues 189-215 of mature ApoA-1: peptide corresponding to amino acid residues 189-215 of mature ApoA-1 of SEQ ID NO: 1, containing helix E (LAEYHAKATEHLSTLSEKAKPALEDLR; UniProt P02647 213-239, looked up, fragment) |  | less immunoreactive |  |
